{"source": "paper PMC2662044", "about": "(European journal of medicinal chemistry, 2008)", "key": {"Kv1.5 [1]": {"target": "T1, Kv1.5 (Homo sapiens, UniProt P22460)", "T1 sequence (P22460 whole entry)": "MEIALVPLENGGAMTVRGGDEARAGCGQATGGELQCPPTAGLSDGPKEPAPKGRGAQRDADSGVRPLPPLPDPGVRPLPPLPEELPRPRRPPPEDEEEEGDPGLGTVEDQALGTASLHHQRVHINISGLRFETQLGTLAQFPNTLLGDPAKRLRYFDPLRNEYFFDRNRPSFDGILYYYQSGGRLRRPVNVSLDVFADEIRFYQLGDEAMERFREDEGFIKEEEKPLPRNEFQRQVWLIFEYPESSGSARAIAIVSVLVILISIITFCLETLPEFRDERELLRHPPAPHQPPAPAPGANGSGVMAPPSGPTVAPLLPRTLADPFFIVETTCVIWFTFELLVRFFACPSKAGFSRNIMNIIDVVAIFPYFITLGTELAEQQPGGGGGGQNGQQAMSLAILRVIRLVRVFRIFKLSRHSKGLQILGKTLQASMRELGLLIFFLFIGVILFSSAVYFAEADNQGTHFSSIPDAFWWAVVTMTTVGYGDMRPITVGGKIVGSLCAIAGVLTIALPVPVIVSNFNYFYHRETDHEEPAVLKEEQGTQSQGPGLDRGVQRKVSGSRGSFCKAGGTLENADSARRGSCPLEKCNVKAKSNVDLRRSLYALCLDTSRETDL", "conditions": "Table 1, cited from earlier work; for IC50: read-out: IC50 value Kv1.5"}, "Kv1.3 [2]": {"target": "T2, Kv1.3 (Mus musculus, UniProt P16390)", "T2 sequence (P16390 whole entry)": "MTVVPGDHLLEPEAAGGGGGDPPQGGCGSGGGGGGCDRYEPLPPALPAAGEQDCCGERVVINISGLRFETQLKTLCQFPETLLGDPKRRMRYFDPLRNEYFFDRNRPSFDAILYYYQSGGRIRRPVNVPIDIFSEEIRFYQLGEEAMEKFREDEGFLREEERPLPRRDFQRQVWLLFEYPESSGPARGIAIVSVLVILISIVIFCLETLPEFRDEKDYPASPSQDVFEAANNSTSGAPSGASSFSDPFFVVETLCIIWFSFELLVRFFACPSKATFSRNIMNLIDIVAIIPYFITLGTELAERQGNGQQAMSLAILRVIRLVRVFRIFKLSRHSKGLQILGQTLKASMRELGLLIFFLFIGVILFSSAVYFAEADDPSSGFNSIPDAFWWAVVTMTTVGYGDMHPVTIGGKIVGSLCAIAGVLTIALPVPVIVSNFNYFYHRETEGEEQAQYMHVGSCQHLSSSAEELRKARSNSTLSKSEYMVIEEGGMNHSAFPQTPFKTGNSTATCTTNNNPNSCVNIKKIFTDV", "assay_type": "cell-based", "conditions": "for IC50: IC50 Kv1.3, text; for Effect on Kv1.3: concentration of 10 µM where stated"}, "Kv1.5 [3]": {"target": "T1, Kv1.5", "test": "Kv1.5 inhibition, whole-cell patch-clamp, currents recorded from MEL-C88 cells", "assay_type": "cell-based", "conditions": "for Selectivity IC50 (Kv1.5)/IC50 (Kv1.3): Table 1"}, "[4]": {"test": "HPLC studies on stability in DMSO stock and Ringer solution", "assay_type": "physicochemical", "conditions": "data not shown"}, "[5]": {"conditions": "cited from earlier work"}, "type-1 diabetes": {"test_system": "type-1 diabetes", "conditions": "rat models; cited from earlier work"}, "[6]": {"conditions": "cited from earlier work", "remark": "listed apart in the source"}, "[7]": {"conditions": "administration for 28 days or 6 months, rats or rhesus macaques; cited from earlier work"}, "[8]": {"test_system": "oxazolone-induced allergic contact dermatitis", "conditions": "rat models; cited from earlier work"}, "Kv1.3 [9]": {"target": "T2, Kv1.3", "conditions": "read-out: IC50 Kv1.3; cited from earlier work"}}, "note": "“Also recorded” adds a separate entry of the source. Like-named read-outs stand apart in the source and are kept apart here.", "data": [{"smiles": "COc1c2ccoc2cc2oc(=O)ccc12", "note": "[Compound 5-MOP, 5-methoxypsoralen]", "values": [{"measurement": "Selectivity IC50 (Kv1.5)/IC50 (Kv1.3)", "setting": "Kv1.5 [1]", "result": 1.75}, {"measurement": "IC50", "setting": "Kv1.5 [1]", "result": 177000, "unit": "nM"}]}, {"smiles": "c1ccc(OCCCCOc2ccccc2)cc1", "note": "[Compound 15, 1,1'[1,4-Butanediyl(oxy)]bis-benzene]", "values": [{"measurement": "IC50", "setting": "Kv1.3 [2]", "result": "> 10000", "unit": "nM"}]}, {"smiles": "c1ccc(OCCCCOc2cccc3ccccc23)cc1", "note": "[Compound 16, 1-(4-Phenoxybutoxy)naphthalene]", "values": [{"measurement": "IC50", "setting": "Kv1.3 [2]", "result": "> 10000", "unit": "nM"}]}, {"smiles": "c1ccc(OCCCCOc2ccnc3ccccc23)cc1", "note": "[Compound 17, 4-(4-Phenoxybutoxy)quinoline]", "values": [{"measurement": "Effect on Kv1.3", "setting": "Kv1.3 [2]", "result": "ineffective"}, {"measurement": "IC50", "setting": "Kv1.5 [3]", "result": 3500, "unit": "nM"}, {"measurement": "Selectivity (IC50 for Kv1.5 divided by the IC50 for Kv1.3)", "setting": "Kv1.5 [3]", "result": 0.34, "unit": "fold"}, {"measurement": "Times more potent on Kv1.5 than on Kv1.3", "setting": "Kv1.5 [3]", "result": "roughly 3 times"}, {"measurement": "Selectivity IC50 (Kv1.5)/IC50 (Kv1.3)", "setting": "Kv1.5 [3]", "result": "< 0.35"}]}, {"smiles": "c1ccc(OCCCCOc2ncnc3ccccc23)cc1", "note": "[Compound 19, 4-(4-Phenoxybutoxy)quinazoline]", "values": [{"measurement": "Effect on Kv1.3", "setting": "Kv1.3 [2]", "result": "ineffective"}, {"measurement": "IC50", "setting": "Kv1.5 [3]", "result": "~25000", "unit": "nM"}]}, {"smiles": "O=c1cc(OCCCCOc2ccccc2)c2ccccc2o1", "note": "[Compound 21, 4-(4-Phenoxybutoxy)-2H-[1]benzopyran-2-one]", "values": [{"measurement": "IC50", "setting": "Kv1.5 [3]", "result": 1500, "unit": "nM"}, {"measurement": "Selectivity IC50 (Kv1.5)/IC50 (Kv1.3)", "setting": "Kv1.5 [3]", "result": 1.69}]}, {"smiles": "COc1c2occc2c(OC)c2c(OCCCCOc3ccccc3)cc(=O)oc12", "note": "[Compound 23, 5,8-Dimethoxy-4-(4-phenoxybutoxy)psoralen]", "values": [{"measurement": "IC50", "setting": "Kv1.5 [3]", "result": 850, "unit": "nM"}, {"measurement": "Selectivity IC50 (Kv1.5)/IC50 (Kv1.3)", "setting": "Kv1.5 [3]", "result": 1.89}]}, {"smiles": "O=C1c2ccccc2C(=O)c2c(OCCCCOc3ccccc3)cccc21", "note": "[Compound 25, 1-(4-Phenoxybutoxy)anthraquinone]", "values": [{"measurement": "IC50", "setting": "Kv1.5 [3]", "result": 10000, "unit": "nM"}, {"measurement": "Selectivity IC50 (Kv1.5)/IC50 (Kv1.3)", "setting": "Kv1.5 [3]", "result": 1.43}]}, {"smiles": "c1ccc(OCCCCOc2cc3ccccc3c3ccccc23)cc1", "note": "[Compound 26, 9-(4-Phenoxybutoxy)phenanthrene]", "values": [{"measurement": "IC50", "setting": "Kv1.3 [2]", "result": "> 10000", "unit": "nM"}]}, {"smiles": "COc1cccc2c(=O)c3ccccc3n(CCCCOc3ccccc3)c12", "note": "[Compound 28, 9,10-Dihydro-4-methoxy-N-(4-phenoxybutyl)acridin-9-one]", "values": [{"measurement": "IC50", "setting": "Kv1.5 [3]", "result": 450, "unit": "nM"}, {"measurement": "Selectivity IC50 (Kv1.5)/IC50 (Kv1.3)", "setting": "Kv1.5 [3]", "result": 2.73}]}, {"smiles": "COc1cc2nc3occc3c(OCCCCOc3ccccc3)c2cc1OC", "note": "[Compound 34, 6,7-Dimethoxy-4-(4-phenoxybutoxy)furo[2,3-b]quinoline]", "values": [{"measurement": "Kinetics of block (mode of Kv1.3 block)", "setting": "Kv1.3 [2]", "result": "block the C-type inactivated state; also recorded: use-dependence"}, {"measurement": "IC50", "setting": "Kv1.5 [3]", "result": 480, "unit": "nM"}, {"measurement": "Selectivity IC50 (Kv1.5)/IC50 (Kv1.3)", "setting": "Kv1.5 [3]", "result": 3.2}]}, {"smiles": "COc1ccc2c(OCCCCOc3ccccc3)c3ccoc3nc2c1OC", "note": "[Compound 35, 7,8-Dimethoxy-4-(4-phenoxybutoxy)furo[2,3-b]quinoline]", "values": [{"measurement": "Kinetics of block (mode of Kv1.3 block)", "setting": "Kv1.3 [2]", "result": "block the C-type inactivated state; also recorded: use-dependence"}]}, {"smiles": "Cc1cc(=O)c2c(OCCCCOc3ccccc3)c3ccoc3cc2o1", "note": "[Compound 36, 7-Methyl-4-(4-phenoxybutoxy)-5H-furo[3,2-g][1]benzopyran-5-one]", "values": [{"measurement": "Kinetics of block (mode of Kv1.3 block)", "setting": "Kv1.3 [2]", "result": "block the C-type inactivated state; also recorded: use-dependence"}, {"measurement": "IC50", "setting": "Kv1.5 [3]", "result": 310, "unit": "nM"}, {"measurement": "Selectivity IC50 (Kv1.5)/IC50 (Kv1.3)", "setting": "Kv1.5 [3]", "result": 1.33}]}, {"smiles": "COc1c2occc2c(OCCCCOc2ccccc2)c2c(=O)cc(C)oc12", "note": "[Compound 37, 9-Methoxy-7-methyl-4-(4-phenoxybutoxy)-5H-furo[3,2-g][1]benzopyran-5-one]", "values": [{"measurement": "IC50", "setting": "Kv1.5 [3]", "result": 2500, "unit": "nM"}, {"measurement": "Selectivity IC50 (Kv1.5)/IC50 (Kv1.3)", "setting": "Kv1.5 [3]", "result": 1.67}]}, {"smiles": "O=c1ccc2c(OCCCCOc3ccccc3)cccc2o1", "note": "[Compound 42, 5-(4-Phenoxybutoxy)-2H-[1]benzopyran-2-one]", "values": [{"measurement": "IC50", "setting": "Kv1.5 [3]", "result": 520, "unit": "nM"}, {"measurement": "Selectivity IC50 (Kv1.5)/IC50 (Kv1.3)", "setting": "Kv1.5 [3]", "result": 3.47}]}, {"smiles": "Cc1cc(=O)c2c(OCCCCOc3ccccc3)c3c(cc2o1)OCO3", "note": "[Compound 56, 2-Methyl-6,7-methylendioxy-5-(4-phenoxybutoxy)-4H-[1]benzopyran-4-one]", "values": [{"measurement": "Times more potent on Kv1.5 than on Kv1.3", "setting": "Kv1.5 [3]", "result": "roughly 3 times"}]}, {"smiles": "COc1c2ccoc2c(OCCCCOc2ccccc2)c2oc(=O)cc(C)c12", "note": "[Compound 63, 5-Methoxy-4-methyl-8-(4-phenoxybutoxy)psoralen]", "values": [{"measurement": "Kinetics of block (mode of Kv1.3 block)", "setting": "Kv1.3 [2]", "result": "open-channel blockers"}, {"measurement": "IC50", "setting": "Kv1.5 [3]", "result": 280, "unit": "nM"}, {"measurement": "Times more potent on Kv1.5 than on Kv1.3", "setting": "Kv1.5 [3]", "result": "roughly 3 times"}, {"measurement": "Selectivity IC50 (Kv1.5)/IC50 (Kv1.3)", "setting": "Kv1.5 [3]", "result": 0.88}]}, {"smiles": "S=c1ccc2c(OCCCCOc3ccccc3)c3ccoc3cc2o1", "note": "[Compound 73, 4-(4-Phenoxybutoxy)-7H-furo[3,2-g]chromene-7-thione]", "values": [{"measurement": "Kinetics of block (mode of Kv1.3 block)", "setting": "Kv1.3 [2]", "result": "block the C-type inactivated state; also recorded: use-dependence"}, {"measurement": "Stability in DMSO stock solutions (HPLC)", "setting": "[4]; DMSO stock solutions", "result": "more than 12 months"}, {"measurement": "Stability in Ringer solution (HPLC)", "setting": "[4]; Ringer solution", "result": "at least 24 hours"}, {"measurement": "IC50", "setting": "Kv1.5 [3]", "result": 380, "unit": "nM"}, {"measurement": "Times more potent on Kv1.5 than on Kv1.3", "setting": "Kv1.5 [3]", "result": 22, "unit": "times"}, {"measurement": "Selectivity IC50 (Kv1.5)/IC50 (Kv1.3)", "setting": "Kv1.5 [3]", "result": 22}]}, {"smiles": "O=c1ccc2c(OCCCCOc3ccccc3)c3ccoc3cc2o1", "note": "[PAP-1, 5-(4-phenoxybutoxy)psoralen]", "values": [{"measurement": "Potency on Kv1.3 in comparison to 5-MOP", "setting": "Kv1.3 [2]", "result": "more than 1000 fold"}, {"measurement": "phototoxicity", "setting": "[5]", "result": "not phototoxic"}, {"measurement": "Effect on onset and incidence of type-1 diabetes", "setting": "type-1 diabetes", "result": "significantly delays the onset and reduces the incidence of type-1 diabetes"}, {"measurement": "IC50", "setting": "Kv1.5 [1]", "result": 45, "unit": "nM"}, {"measurement": "in vitro or in vivo toxicity", "setting": "[6]", "result": "does not display any in vitro or in vivo toxicity"}, {"measurement": "Changes in liver enzymes or liver pathology", "setting": "[7]", "result": "does not lead to any changes in liver enzymes or liver pathology"}, {"measurement": "Effect on oxazolone-induced allergic contact dermatitis", "setting": "[8]", "result": "effectively suppresses oxazolone-induced allergic contact dermatitis"}]}, {"smiles": "COc1cc2nc3occc3c(OC)c2cc1OC", "note": "[kokusagenine, 4,6,7-trimethoxyfuro[2,3-b]quinoline]", "values": [{"measurement": "IC50", "setting": "Kv1.3 [9]", "result": 10000, "unit": "nM"}]}]}
